This is an account of results in ChEMBL document CHEMBL3997811.

One may read the CC50 as the concentration that lowers cell viability or growth by half.

The test system of one data set is A549. Briefly: Cytotoxicity against human A549 cells after 48 hrs by neutral red uptake assay. Type of data set: cell-based. To be noted: a549, 48 h.
For another data set, the system named is MDCK. Briefly: Cytotoxicity against MDCK cells after 48 hrs by neutral red uptake assay. Type of data set: cell-based, Canis lupus familiaris. To be noted: dog.

As for `Clc1cc(-c2cc(CNC34CC5CC(CC(C5)C3)C4)no2)c(Cl)s1`, the CC50 amounted to 61.4 µM in the data set on A549 and 39.3 µM in the data set on MDCK. The compound `OC12CC3CC(C1)CC(NCc1cc(-c4cc(Cl)sc4Cl)on1)(C3)C2` had a CC50 with MDCK of 87.6 µM.

Regarding `COc1sccc1-c1cc(CNC23CC4CC(CC(C4)C2)C3)no1`, the CC50 in the data set with A549 worked out at 35.5 µM; in the data set with MDCK, 30.6 µM. For the compound `OC12CC3CC(C1)CC(NCc1cc(-c4ccccc4Cl)on1)(C3)C2`, the cytotoxic concentration (CC50) was found to be 143 µM in the data set on A549 and 64.1 µM in the data set with MDCK. In the same order, the values of `Oc1ccccc1-c1cc(CNC23CC4CC(CC(C4)C2)C3)no1` are 78.2 µM and 73.7 µM.

Turning to `Clc1cc(-c2cc(CNC34CC5CC(CC(C5)C3)C4)no2)cs1`, the figures for the CC50 in the data set with A549 and in the data set on MDCK were 52.6 µM and 35.6 µM, respectively. As to `CSc1ccccc1-c1cc(CNC23CC4CC(CC(O)(C4)C2)C3)no1`, the CC50 worked out at 102 µM in the data set on A549 and 59.3 µM in the data set with MDCK.
